ChEMBL document CHEMBL2021828, “An approach for differentiating isozymes. Construction of libraries containing short aromatic peptides as part of a method to design selective inhibitors against lipases” (Bioorg Med Chem Lett, 2012)
Activity calls are given as the source filed them. No cut-off for these calls is given here.

Key:
[1] = Solubility of the compound in buffer; assay type: physicochemical
[2] = biological target: T1, Pancreatic triacylglycerol lipase (Sus scrofa) (UniProt P00591); test: Activity of porcine pancreatic lipase using p-nitrophenylbutyrate as substrate by Lineweaver-Burk plot analysis
T1 sequence (whole entry): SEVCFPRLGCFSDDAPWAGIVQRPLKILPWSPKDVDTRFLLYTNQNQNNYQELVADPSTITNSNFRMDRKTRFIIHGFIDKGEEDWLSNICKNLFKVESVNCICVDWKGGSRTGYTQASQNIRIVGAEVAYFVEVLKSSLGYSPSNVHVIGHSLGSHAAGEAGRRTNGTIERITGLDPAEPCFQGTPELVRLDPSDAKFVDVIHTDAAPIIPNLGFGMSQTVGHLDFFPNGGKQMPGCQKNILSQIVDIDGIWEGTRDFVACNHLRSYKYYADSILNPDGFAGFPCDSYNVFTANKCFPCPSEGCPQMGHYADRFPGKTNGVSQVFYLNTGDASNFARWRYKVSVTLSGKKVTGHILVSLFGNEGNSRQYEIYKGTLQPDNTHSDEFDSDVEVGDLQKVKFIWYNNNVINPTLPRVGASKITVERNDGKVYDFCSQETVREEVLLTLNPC

[3] = tested on: Chromobacterium viscosum; test: Activity of Chromobacterium viscosum lipase using p-nitrophenylbutyrate as substrate by Lineweaver-Burk plot analysis
[4] = biological target: T2, Pancreatic triacylglycerol lipase (Homo sapiens) (UniProt P16233); test: Activity of human pancreatic lipase using p-nitrophenylbutyrate as substrate by Lineweaver-Burk plot analysis
T2 sequence (whole entry): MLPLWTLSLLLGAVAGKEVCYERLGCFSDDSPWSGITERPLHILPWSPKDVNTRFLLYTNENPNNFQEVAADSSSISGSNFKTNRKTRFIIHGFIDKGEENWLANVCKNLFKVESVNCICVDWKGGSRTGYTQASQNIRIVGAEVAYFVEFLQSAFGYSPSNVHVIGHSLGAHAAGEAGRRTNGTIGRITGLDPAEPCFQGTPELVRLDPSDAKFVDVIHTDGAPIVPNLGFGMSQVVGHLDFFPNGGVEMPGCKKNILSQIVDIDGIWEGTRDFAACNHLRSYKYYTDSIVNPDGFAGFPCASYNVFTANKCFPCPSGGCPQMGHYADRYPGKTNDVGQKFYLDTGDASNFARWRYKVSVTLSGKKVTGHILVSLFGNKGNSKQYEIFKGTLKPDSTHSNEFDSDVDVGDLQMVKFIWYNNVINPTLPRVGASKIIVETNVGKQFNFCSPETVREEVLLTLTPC

[5] = biological target: T3, Lipase (Thermomyces lanuginosus) (UniProt O59952); test: Activity of Thermomyces lanuginosus lipase using p-nitrophenylbutyrate as substrate by Lineweaver-Burk plot analysis
T3 sequence (whole entry): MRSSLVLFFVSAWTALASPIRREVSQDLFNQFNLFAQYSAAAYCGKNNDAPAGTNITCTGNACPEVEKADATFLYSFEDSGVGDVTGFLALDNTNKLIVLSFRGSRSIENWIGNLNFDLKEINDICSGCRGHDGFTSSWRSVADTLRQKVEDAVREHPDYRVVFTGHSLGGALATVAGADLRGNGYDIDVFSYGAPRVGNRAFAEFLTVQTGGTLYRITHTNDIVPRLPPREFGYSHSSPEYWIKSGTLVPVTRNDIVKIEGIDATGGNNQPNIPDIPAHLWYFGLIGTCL

[6] = biological target: T4, Pancreatic triacylglycerol lipase (Homo sapiens, UniProt P16233); test: (§1) Inhibition of human pancreatic lipase using p-nitrophenylbutyrate as substrate by Dixon plot analysis
T4 sequence (P16233 whole entry): T2 sequence (whole entry)

[7] = biological target: T2, Pancreatic triacylglycerol lipase (Homo sapiens); test: as §1
[8] = biological target: T1, Pancreatic triacylglycerol lipase (Sus scrofa); test: (§2) Inhibition of porcine pancreatic lipase using p-nitrophenylbutyrate as substrate by Dixon plot analysis
[9] = biological target: T5, Pancreatic triacylglycerol lipase (Sus scrofa, UniProt P00591); test: as §2
T5 sequence (P00591 whole entry): T1 sequence (whole entry)

[10] = Discrimination ratio of Ki for Thermomyces lanuginosus lipase to Ki for Chromobacterium viscosum lipase
[11] = Discrimination ratio of Ki for human pancreatic lipase to Ki for Chromobacterium viscosum lipase
[12] = tested on: Chromobacterium viscosum; test: Activity of Chromobacterium viscosum lipase using p-nitrophenylbutyrate as substrate by Lineweaver-Burk plot analysis relative to control
[13] = Discrimination ratio of Ki for porcine pancreatic lipase to Ki for Chromobacterium viscosum lipase
[14] = biological target: T3, Lipase (Thermomyces lanuginosus); test: Inhibition of Thermomyces lanuginosus lipase using p-nitrophenylbutyrate as substrate by Dixon pot analysis
[15] = Inhibition of Chromobacterium viscosum lipase using p-nitrophenylbutyrate as substrate by Dixon plot analysis

Activity [2]	Activity [3]	Activity [4]	Activity [5]	Compound	also measured
–	–	–	–	CCCCCCCCCCOc1ccc(NC(=O)CCC(=O)N[C@@H](Cc2ccccc2)C(=O)N[C@@H](Cc2ccccc2)C(N)=O)cc1	solubility [1]: Insoluble
Active	Active	Active	Active	CCCC(=O)Oc1ccc(NC(=O)CCC(=O)N[C@@H](Cc2ccccc2)C(=O)N[C@@H](Cc2c[nH]c3ccccc23)C(N)=O)cc1	–
Active	Active	Active	Active	CCCC(=O)Oc1ccc(NC(=O)CCC(=O)N[C@@H](Cc2ccc(O)cc2)C(=O)N[C@@H](Cc2c[nH]c3ccccc23)C(N)=O)cc1	–
Active	Active	Active	Active	CCCC(=O)Oc1ccc(NC(=O)CCC(=O)N[C@@H](Cc2ccccc2)C(=O)N[C@@H](Cc2ccc(O)cc2)C(N)=O)cc1	–
–	–	–	–	CCCCOc1ccc(NC(=O)CCC(=O)N[C@@H](Cc2ccccc2)C(=O)N[C@@H](Cc2ccc(O)cc2)C(N)=O)cc1	Ki [6]: 550 µM; inhibition [7]: inactive; inhibition [8]: inactive; Ki [9]: 160 µM; solubility [1]: soluble
–	–	–	–	CCCCOc1ccc(NC(=O)CCC(=O)N[C@@H](Cc2ccc(O)cc2)C(=O)N[C@@H](Cc2ccccc2)C(N)=O)cc1	Ki [6]: 170 µM; inhibition [7]: inactive; inhibition [8]: inactive; Ki [9]: 71 µM
Active	Active	Active	Active	CCCC(=O)Oc1ccc(NC(=O)CCC(=O)N[C@@H](Cc2ccccc2)C(=O)N[C@@H](Cc2ccccc2)C(N)=O)cc1	Ratio Ki [10]: > 160; inhibition [7]: inactive; Ratio Ki [11]: > 160; inhibition [8]: inactive; Km [3]: 180 µM; fold change (FC) [12]: 20; Ratio Ki [13]: > 160; inhibition [14]: inactive; Ki [15]: 37 µM
Active	Active	Active	Active	CCCC(=O)Oc1ccc(NC(=O)CCC(=O)N[C@@H](Cc2c[nH]c3ccccc23)C(=O)N[C@@H](Cc2c[nH]c3ccccc23)C(N)=O)cc1	–
–	–	–	–	CCCCCCCOc1ccc(NC(=O)CCC(=O)N[C@@H](Cc2ccccc2)C(=O)N[C@@H](Cc2ccccc2)C(N)=O)cc1	Ki [9]: 39 µM; solubility [1]: Insoluble; Ki [15]: 0.37 µM
Active	Active	Active	Active	CCCC(=O)Oc1ccc(NC(=O)CCC(=O)N[C@@H](Cc2c[nH]c3ccccc23)C(=O)N[C@@H](Cc2ccc(O)cc2)C(N)=O)cc1	–
Active	Active	Active	Active	CCCC(=O)Oc1ccc(NC(=O)CCC(=O)N[C@@H](Cc2c[nH]c3ccccc23)C(=O)N[C@@H](Cc2ccccc2)C(N)=O)cc1	–
–	–	–	–	NC(=O)[C@H](Cc1ccccc1)NC(=O)[C@H](Cc1ccccc1)NC(=O)CCC(=O)Nc1ccc(O)cc1	Ratio Ki [10]: > 160; Ratio Ki [11]: > 160; Ratio Ki [13]: > 160; Ki [15]: 37 µM
Active	Active	Active	Active	CCCC(=O)Oc1ccc(NC(=O)CCC(=O)N[C@@H](Cc2ccc(O)cc2)C(=O)N[C@@H](Cc2ccc(O)cc2)C(N)=O)cc1	–
Active	Active	Active	Active	CCCC(=O)Oc1ccc(NC(=O)CCC(=O)N[C@@H](Cc2ccc(O)cc2)C(=O)N[C@@H](Cc2ccccc2)C(N)=O)cc1	–
–	–	–	–	CCCC(=O)Oc1ccc([N+](=O)[O-])cc1	Km [3]: 3500 µM
–	–	–	–	CCCCOc1ccc(NC(=O)CCC(=O)N[C@@H](Cc2ccccc2)C(=O)N[C@@H](Cc2ccccc2)C(N)=O)cc1	Ratio Ki [10]: 84; inhibition [7]: inactive; Ratio Ki [11]: 140; inhibition [8]: inactive; fold change (FC) [12]: 20; Ratio Ki [13]: 140; Ki [15]: 2.6 µM
